pIC50: −log10 of the molar value.
How the values were obtained:
KRAS (G12C)::SOS1 = KRAS (G12C)::SOS1 (Homo sapiens (Human), UniProt P01116, C118S/C51S/C80L/G12C); assay: KRAS::SOS1 AlphaScreen binding assay, KRAS G12C
Outline: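 Compounds (up to 100 μM, eleven fivefold dilutions in duplicate) were incubated 30 min with KRAS 1-169 (10 nM, or 7.5 nM for G12C), GST-SOS1 564-1049 (5 nM for G12D/G12C, 10 nM for others) and 10 μM GDP in PBS buffer with BSA and Tween. Donor/acceptor beads were then added for 60 min at room temperature, and IC50 came from a 4-parameter fit of the AlphaScreen signal.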

SAS cells = assay: SAS CTG proliferation assay (120 h) (HNSCC, wt amplified); format: cell-based
Outline: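 Viability measured by CellTiter-Glo luminescence, normalized to DMSO wells, after 120 h compound treatment of SAS cells. Cells grown in DMEM:F12 plus 10% FCS at 300 cells per well, dosed the day after seeding. Four-parameter fit gives IC50.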

[1] = Plasma protein binding assay (PPB), equilibrium dialysis, 10% FCS in PBS; format: in vitro ADME; conditions: bovine, read-out: PPB 10% FCS (% fu)
Outline: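 Test compound (1-10 μmol/L) in 10% FCS in PBS was dialysed for 3-5 h at 37° C versus PBS ± dextran across a semipermeable membrane. LC-MS of both compartments after protein precipitation gave Cserum and Cbuffer, from which the unbound fraction fu was derived.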

Sequence of KRAS (G12C)::SOS1 (P01116 other isoform, or with tags, fused parts or gaps G12C/C51S/C80L/C118S): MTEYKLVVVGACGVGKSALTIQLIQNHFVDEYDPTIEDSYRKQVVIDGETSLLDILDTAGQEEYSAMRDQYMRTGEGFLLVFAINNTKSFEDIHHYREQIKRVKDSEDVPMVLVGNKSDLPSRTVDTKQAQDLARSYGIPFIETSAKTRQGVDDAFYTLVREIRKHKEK

SMILES | pIC50 (KRAS (G12C)::SOS1) | fraction unbound [1] | pIC50 (SAS cells)
C[C@H](Oc1cc(-c2ccn(C[C@@H](C)O)n2)nc(-c2onc3c2CCC[C@@]32CCCc3sc(N)c(C#N)c32)n1)[C@@H]1CCCN1C [I-30] | 8.70 | 0.46 | 7.30
C[C@H](O)Cn1ccc(-c2cc(O[C@@H](C)[C@@H]3CCCN3C)nc(-c3onc4c3CCC[C@@]43CCCc4sc(N)c(C#N)c43)n2)n1 [I-31] | 8.70 | 0.53 | 7.24
C[C@H](Oc1cc(-n2ccnn2)nc(-c2onc3c2CCC[C@@]32CCCc3sc(N)c(C#N)c32)n1)[C@@H]1CCCN1C [I-32] | 8.70 | 0.48 | 7.28
C[C@H](Oc1cc(-c2ccn3ncnc3c2)nc(-c2onc3c2CCC[C@@]32CCCc3sc(N)c(C#N)c32)n1)[C@@H]1CCCN1C [I-33] | 8.70 | 0.31 | 7.09
C[C@H](Oc1cc(-c2ccn(C3COC3)n2)nc(-c2onc3c2CCC[C@@]32CCCc3sc(N)c(C#N)c32)n1)[C@@H]1CCCN1C [I-34] | 8.70 | 0.54 | 6.73
C[C@H](Oc1cc(N2CCN(C)C3(COC3)C2)nc(-c2onc3c2CCC[C@@]32CCCc3sc(N)c(C#N)c32)n1)[C@@H]1C[C@@H](F)CN1C [I-37] | 8.70 | 0.26 | 6.39
C[C@H](Oc1cc(N2CCN(C)C3(CC3)C2)nc(-c2onc3c2CCC[C@@]32CCCc3sc(N)c(C#N)c32)n1)[C@@H]1C[C@@H](F)CN1C [I-39] | 8.00 | 0.07 | 5.92
C[C@H](Oc1cc(N2C[C@H](C)N(C)[C@@H](C)C2)nc(-c2onc3c2CCC[C@@]32CCCc3sc(N)c(C#N)c32)n1)[C@@H]1CCCN1C [I-43] | 8.22 | 0.73 | 5.75
C[C@H](Oc1cc(N2CCN(C)C3(CCC3)C2)nc(-c2onc3c2CCC[C@@]32CCCc3sc(N)c(C#N)c32)n1)[C@@H]1CCCN1C [I-44] | 7.89 | 0.22 | 5.92
C[C@H](Oc1cc(N2CCNC3(CC3)C2)nc(-c2onc3c2CCC[C@@]32CCCc3sc(N)c(C#N)c32)n1)[C@@H]1C[C@@H](F)CN1C [I-45] | 8.40 | 0.14 | 5.92
CO[C@H]1CCN(C)[C@@H]1[C@H](C)Oc1cc(-n2ccc(CC(=O)NC(C)C)n2)nc(-c2onc3c2CCC[C@@]32CCCc3sc(N)c(C#N)c32)n1 [I-48] | 8.70 | 0.12 | 7.89
CO[C@H]1CCN(C)[C@@H]1[C@H](C)Oc1cc(N2CCNC3(CC3)C2)nc(-c2onc3c2CCC[C@@]32CCCc3sc(N)c(C#N)c32)n1 [I-49] | 8.52 | 0.15 | 6.04
CO[C@@H]1C[C@@H]([C@H](C)Oc2cc(N3CCN(C)C4(CC4)C3)nc(-c3onc4c3CCC[C@@]43CCCc4sc(N)c(C#N)c43)n2)N(C)C1 [I-50] | 8.30 | 0.14 | 5.54
CO[C@H]1CCN(C)[C@@H]1[C@H](C)Oc1cc(-n2ccc(C(=O)N[C@@H]3CCOC3)n2)nc(-c2onc3c2CCC[C@@]32CCCc3sc(N)c(C#N)c32)n1 [I-53] | 9.00 | 0.05 | 7.89
CO[C@H]1CCN(C)[C@@H]1[C@H](C)Oc1cc(-n2ccc(C(=O)N[C@H]3CCOC3)n2)nc(-c2onc3c2CCC[C@@]32CCCc3sc(N)c(C#N)c32)n1 [I-54] | 9.00 | 0.09 | 7.77
COCCNC(=O)c1ccn(-c2cc(O[C@@H](C)[C@@H]3[C@@H](OC)CCN3C)nc(-c3onc4c3CCC[C@@]43CCCc4sc(N)c(C#N)c43)n2)n1 [I-55] | 9.00 | 0.06 | 8.00
C[C@H](Oc1cc(-n2ccc(C(=O)N[C@@H]3CCOC3)n2)nc(-c2onc3c2CCC[C@@]32CCCc3sc(N)c(C#N)c32)n1)[C@@H]1CCCN1C [I-56] | 8.70 | 0.32 | 7.60
COCCNC(=O)c1ccn(-c2cc(O[C@@H](C)[C@@H]3CCCN3C)nc(-c3onc4c3CCC[C@@]43CCCc4sc(N)c(C#N)c43)n2)n1 [I-58] | 9.00 | 0.28 | 7.35
C[C@H](NC(=O)c1ccn(-c2cc(O[C@@H](C)[C@@H]3CCCN3C)nc(-c3onc4c3CCC[C@@]43CCCc4sc(N)c(C#N)c43)n2)n1)c1ccccn1 [I-59] | 9.00 | 0.04 | 7.82
C[C@H](Oc1cc(-n2ccc(C(=O)N(C)C3COC3)n2)nc(-c2onc3c2CCC[C@@]32CCCc3sc(N)c(C#N)c32)n1)[C@@H]1CCCN1C [I-60] | 9.00 | 0.1 | 7.40

Continued, in another order:

pIC50 (KRAS (G12C)::SOS1) | fraction unbound [1] | SMILES | pIC50 (SAS cells)
8.30 | 0.43 | C[C@H](Oc1cc(N2CC(N(C)C)C2)nc(-c2noc3c2CCC[C@@]32CCCc3sc(N)c(C#N)c32)n1)[C@@H]1CCCN1C [II-7] | 5.92
8.52 | 0.17 | C[C@H](Oc1cc(N2CCN(CCO)CC2)nc(-c2noc3c2CCC[C@@]32CCCc3sc(N)c(C#N)c32)n1)[C@@H]1CCCN1C [II-8] | 6.27
8.15 | 0.69 | C[C@H](Oc1cc(N2C[C@@H](N(C)C)[C@@H](O)C2)nc(-c2noc3c2CCC[C@@]32CCCc3sc(N)c(C#N)c32)n1)[C@@H]1CCCN1C [II-10] | 5.45
8.22 | 0.89 | C[C@H](Oc1cc(N2C[C@@H](N(C)C)[C@@H](F)C2)nc(-c2noc3c2CCC[C@@]32CCCc3sc(N)c(C#N)c32)n1)[C@@H]1CCCN1C [II-11] | 5.88
8.10 | 0.2 | C[C@H](Oc1cc(N2CC[C@H](N3CCCCC3)C2)nc(-c2noc3c2CCC[C@@]32CCCc3sc(N)c(C#N)c32)n1)[C@@H]1CCCN1C [II-12] | 5.72
8.70 | 0.24 | C[C@H](Oc1cc(N2CCN(C)C3(COC3)C2)nc(-c2noc3c2CCC[C@@]32CCCc3sc(N)c(C#N)c32)n1)[C@@H]1CCCN1C [II-13] | 6.35
8.40 | 0.16 | C[C@H](Oc1cc(N2CC[C@H](N3CCCC3)C2)nc(-c2noc3c2CCC[C@@]32CCCc3sc(N)c(C#N)c32)n1)[C@@H]1CCCN1C [II-14] | 5.78
8.15 | 0.64 | C[C@H](Oc1cc(N2CC[C@H](N(C)C)C2)nc(-c2noc3c2CCC[C@@]32CCCc3sc(N)c(C#N)c32)n1)[C@@H]1C[C@@H](F)CN1C [II-15] | 5.89
7.13 | 0.16 | C[C@H]1CN(C)CCCN1c1cc(N2CC[C@H](N(C)C)C2)nc(-c2noc3c2CCC[C@@]32CCCc3sc(N)c(C#N)c32)n1 [II-16] | 5.41
8.52 | 0.09 | C[C@@H]1CN(c2cc(O[C@@H](C)[C@@H]3C[C@@H](F)CN3C)nc(-c3noc4c3CCC[C@@]43CCCc4sc(N)c(C#N)c43)n2)CC2(CC2)N1 [II-17] | 5.99
8.52 | 0.11 | C[C@H](Oc1cc(N2C[C@H](C)NC3(CC3)C2)nc(-c2noc3c2CCC[C@@]32CCCc3sc(N)c(C#N)c32)n1)[C@@H]1C[C@@H](F)CN1C [II-18] | 6.53
9.00 | 0.04 | C[C@H](Oc1cc(-n2ccc(C(=O)N3CCCC3)n2)nc(-c2noc3c2CCC[C@@]32CCCc3sc(N)c(C#N)c32)n1)[C@@H]1CCCN1C [II-19] | 6.88
9.00 | 0.14 | CNC(=O)c1ccn(-c2cc(O[C@@H](C)[C@@H]3CCCN3C)nc(-c3noc4c3CCC[C@@]43CCCc4sc(N)c(C#N)c43)n2)n1 [II-20] | 7.07
8.70 | 0.24 | C[C@H](Oc1cc(-n2ccc(C(N)=O)n2)nc(-c2noc3c2CCC[C@@]32CCCc3sc(N)c(C#N)c32)n1)[C@@H]1CCCN1C [II-21] | 7.46
9.00 | 0.03 | CCOC(=O)c1ccn(-c2cc(O[C@@H](C)[C@@H]3CCCN3C)nc(-c3noc4c3CCC[C@@]43CCCc4sc(N)c(C#N)c43)n2)n1 [II-23] | 6.65
8.70 | 0.48 | C[C@H](Oc1cc(-n2ccc(C(=O)O)n2)nc(-c2noc3c2CCC[C@@]32CCCc3sc(N)c(C#N)c32)n1)[C@@H]1CCCN1C [II-24] | 4.81
9.00 | 0.15 | C[C@H](Oc1cc(-n2ccc(C(=O)NC3COC3)n2)nc(-c2noc3c2CCC[C@@]32CCCc3sc(N)c(C#N)c32)n1)[C@@H]1CCCN1C [II-25] | 8.05
9.00 | 0.24 | C[C@H](Oc1cc(-n2ccc(C(=O)NC3(C)COC3)n2)nc(-c2noc3c2CCC[C@@]32CCCc3sc(N)c(C#N)c32)n1)[C@@H]1CCCN1C [II-26] | 8.30
8.70 | 0.05 | C[C@H](Oc1cc(-c2ccn(C)n2)nc(-c2noc3c2CCC[C@@]32CCCc3sc(N)c(C#N)c32)n1)[C@@H]1C[C@@H](F)CN1C [II-27] | 6.82
8.15 | 0.09 | C[C@H](Oc1cc(-c2cnn(C)n2)nc(-c2noc3c2CCC[C@@]32CCCc3sc(N)c(C#N)c32)n1)[C@@H]1C[C@@H](F)CN1C [II-28] | 6.69

Source: US20240174690A1, “ANNULATED 2-AMINO-3-CYANO THIOPHENES AND DERIVATIVES FOR THE TREATMENT OF CANCER” (BOEHRINGER INGELHEIM INTERNATIONAL GMBH, priority 2021, published 2024)
